{"source": "paper PMC6222781", "about": "“Structural Optimization of Foldamer-Dendrimer Conjugates as Multivalent Agents against the Toxic Effects of Amyloid Beta Oligomers” (Molecules : A Journal of Synthetic Chemistry and Natural …, 2018)", "key": {"Aβ oligomers [1]": {"biological_target": "T1, Aβ oligomers (Homo sapiens, UniProt P05067)", "T1 construct": "Ser^26 depsipeptide iso-Aβ (1–42) was used; made in house; host or cells: chemical peptide synthesis (no expression host)", "T1 sequence (P05067 672-713 limits assumed)": "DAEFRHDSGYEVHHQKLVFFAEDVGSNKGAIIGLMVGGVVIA", "assay": "Sandwich ELISA binding of biotin-tagged conjugates to Aβ", "text": "To study the role of certain structure elements in the binding affinity, a set of new foldamer sequences were designed (Figure 2) and ligated to lysine-dendron scaffolds having a focal symmetry. This template with biotin affinity tag can be easily synthesized by solid phase peptide synthesis and immobilized on a streptavidin coated support such as the surface of the ELISA plate. Structural changes included fine-tuning the side-chain properties (2b–2d), changing the position of ionic residues (2e) and introducing bulky bicyclic side-chains (2f–2i).\nThe binding affinities of 2b–2i to Aβ oligomers were tested in ITC experiments. In such cases where the fitting failed due to low heat response or poor solubility, sandwich ELISA experiments were performed to enable the comparison of all conjugates (see Supporting Information for details).\nThe apparent dissociation constants for the complete set of new conjugates were calculated individually from the data of the ELISA experiments as well. Comparing the KD values of 2f–2i in this case, the replacement of ACHC to ABHC had only a minor effect on the Aβ binding. The cyclic β-amino acid ACHC not only provides the helical conformation of such a short foldamer but also protects the ionic residues from solvent upon binding due to its hydrophobicity."}, "Aβ oligomers [2]": {"biological_target": "T1, Aβ oligomers", "assay": "Isothermal titration calorimetry (ITC) binding to Aβ oligomers", "details": "KD ITC, Table 1, PBS pH 7.4, 285 K, Aβ 100 µM in cell, ligand 250 µM in syringe, two independent site model", "experimental": "The binding affinities of 2b–2i to Aβ oligomers were tested in ITC experiments.\nIn this work, Ser^26 depsipeptide iso-Aβ (1–42) was used, which was synthesized and purified as described previously. The lyophilized iso-Aβ (1–42) was dissolved in MilliQ water to a concentration of 1 mg mL^−1, sonicated for 3 min and the pH was set to 7.0 to initiate an O to N acyl migration, whereby the native sequence can be readily formed. The sample was incubated at room temperature for 10 min. Then the pH was set to 11 and the sample was kept at room temperature for additional 2 h. After the incubation, the Aβ stock solution was aliquoted and stored at −20 °C until use. To obtain Aβ oligomers, the 1 mg mL^−1 aliquot was diluted to a final concentration of 50 μM with 26.67 mM PBS and the pH was set to 7.4 with 1 M HCl. The sample was incubated at 37 °C for 3 h.\nIsothermal calorimetric titrations were performed with a Microcal VP-ITC microcalorimeter in pH 7.4 PBS buffer solution. In individual titrations, 10 µL portions of the ligand containing solution were repeatedly injected from the computer-controlled 300-µL microsyringe at intervals of 300 s into the Aβ oligomer solution prepared in the same buffer as the ligand. All measurements were carried out at 285 K. The Aβ concentration in the cell was 100 µM and the total ligand concentration was 250 µM in the syringe and the titration was stopped when the precipitation of the Aβ aggregates became excessive. Control experiments were performed by injecting the ligand into a cell containing buffer with no target, and the heats of dilution were subtracted from those measured in the presence of Aβ. The experimental data were fitted to the two independent site binding models by using a nonlinear least-squares procedure, with ΔHb, ΔHb’, Kd, Kd’ ([…]), n and n’ (number of binding sites for monomer), as adjustable parameters."}}, "data": [{"compound": "NCCCC[C@@H](CC(=O)N[C@H]1CCCC[C@@H]1C(=O)N[C@H]1CCCC[C@@H]1C(=O)N[C@@H](CC(=O)O)CC(=O)N[C@H]1CCCC[C@@H]1C(=O)NCC(=O)NCC(=O)N[C@@H](CSC1CC(=O)N(CCC(=O)NCCCC[C@H](NC(=O)CCN2C(=O)CC(SC[C@H](NC(=O)CNC(=O)CNC(=O)[C@H]3CCCC[C@@H]3NC(=O)C[C@H](CC(=O)O)NC(=O)[C@H]3CCCC[C@@H]3NC(=O)[C@H]3CCCC[C@@H]3NC(=O)C[C@H](CCCCN)NC(=O)[C@H]3CCCC[C@@H]3N)C(N)=O)C2=O)C(=O)NCCCC[C@H](NC(=O)[C@H](CCCCNC(=O)CCN2C(=O)CC(SC[C@H](NC(=O)CNC(=O)CNC(=O)[C@H]3CCCC[C@@H]3NC(=O)C[C@H](CC(=O)O)NC(=O)[C@H]3CCCC[C@@H]3NC(=O)[C@H]3CCCC[C@@H]3NC(=O)C[C@H](CCCCN)NC(=O)[C@H]3CCCC[C@@H]3N)C(N)=O)C2=O)NC(=O)CCN2C(=O)CC(SC[C@H](NC(=O)CNC(=O)CNC(=O)[C@H]3CCCC[C@@H]3NC(=O)C[C@H](CC(=O)O)NC(=O)[C@H]3CCCC[C@@H]3NC(=O)[C@H]3CCCC[C@@H]3NC(=O)C[C@H](CCCCN)NC(=O)[C@H]3CCCC[C@@H]3N)C(N)=O)C2=O)C(=O)N[C@@H](CCCCNC(=O)CCCC[C@@H]2SC[C@@H]3NC(=O)N[C@@H]32)C(N)=O)C1=O)C(N)=O)NC(=O)[C@H]1CCCC[C@@H]1N", "note": "(stereo partly drawn) [Compound 2b]", "values": [{"measurement": "Kd", "setting": "Aβ oligomers [1]", "value": "5.36 ± 1.42", "unit": "nM"}, {"measurement": "Kd", "setting": "Aβ oligomers [2]; first binding stage", "value": "53.2 ± 38.7", "unit": "nM"}, {"measurement": "Kd", "setting": "Aβ oligomers [2]; second binding stage", "value": "373 ± 104", "unit": "nM"}]}, {"compound": "N=C(N)NCCC[C@@H](CC(=O)N[C@H]1CCCC[C@@H]1C(=O)N[C@H]1CCCC[C@@H]1C(=O)N[C@@H](CCC(=O)O)CC(=O)N[C@H]1CCCC[C@@H]1C(=O)NCC(=O)NCC(=O)N[C@@H](CSC1CC(=O)N(CCC(=O)NCCCC[C@H](NC(=O)CCN2C(=O)CC(SC[C@H](NC(=O)CNC(=O)CNC(=O)[C@H]3CCCC[C@@H]3NC(=O)C[C@H](CCC(=O)O)NC(=O)[C@H]3CCCC[C@@H]3NC(=O)[C@H]3CCCC[C@@H]3NC(=O)C[C@H](CCCNC(=N)N)NC(=O)[C@H]3CCCC[C@@H]3N)C(N)=O)C2=O)C(=O)NCCCC[C@H](NC(=O)[C@H](CCCCNC(=O)CCN2C(=O)CC(SC[C@H](NC(=O)CNC(=O)CNC(=O)[C@H]3CCCC[C@@H]3NC(=O)C[C@H](CCC(=O)O)NC(=O)[C@H]3CCCC[C@@H]3NC(=O)[C@H]3CCCC[C@@H]3NC(=O)C[C@H](CCCNC(=N)N)NC(=O)[C@H]3CCCC[C@@H]3N)C(N)=O)C2=O)NC(=O)CCN2C(=O)CC(SC[C@H](NC(=O)CNC(=O)CNC(=O)[C@H]3CCCC[C@@H]3NC(=O)C[C@H](CCC(=O)O)NC(=O)[C@H]3CCCC[C@@H]3NC(=O)[C@H]3CCCC[C@@H]3NC(=O)C[C@H](CCCNC(=N)N)NC(=O)[C@H]3CCCC[C@@H]3N)C(N)=O)C2=O)C(=O)N[C@@H](CCCCNC(=O)CCCC[C@@H]2SC[C@@H]3NC(=O)N[C@@H]32)C(N)=O)C1=O)C(N)=O)NC(=O)[C@H]1CCCC[C@@H]1N", "note": "(stereo partly drawn) [Compound 2c]", "values": [{"measurement": "Kd", "setting": "Aβ oligomers [1]", "value": "1.92 ± 0.21", "unit": "nM"}, {"measurement": "Kd", "setting": "Aβ oligomers [2]; first binding stage", "value": "2.53 ± 1.81", "unit": "nM"}, {"measurement": "Kd", "setting": "Aβ oligomers [2]; second binding stage", "value": "175 ± 46.4", "unit": "nM"}]}, {"compound": "CC1(C)[C@H]2C[C@H](N)[C@@H](C(=O)N[C@@H](CCCNC(=N)N)CC(=O)N[C@H]3CCCC[C@@H]3C(=O)N[C@H]3CCCC[C@@H]3C(=O)N[C@@H](CC(=O)O)CC(=O)N[C@H]3CCCC[C@@H]3C(=O)NCC(=O)NCC(=O)N[C@@H](CSC3CC(=O)N(CCC(=O)NCCCC[C@H](NC(=O)CCN4C(=O)CC(SC[C@H](NC(=O)CNC(=O)CNC(=O)[C@H]5CCCC[C@@H]5NC(=O)C[C@H](CC(=O)O)NC(=O)[C@H]5CCCC[C@@H]5NC(=O)[C@H]5CCCC[C@@H]5NC(=O)C[C@H](CCCNC(=N)N)NC(=O)[C@@H]5[C@@H](N)C[C@H]6C[C@@H]5C6(C)C)C(N)=O)C4=O)C(=O)NCCCC[C@H](NC(=O)[C@H](CCCCNC(=O)CCN4C(=O)CC(SC[C@H](NC(=O)CNC(=O)CNC(=O)[C@H]5CCCC[C@@H]5NC(=O)C[C@H](CC(=O)O)NC(=O)[C@H]5CCCC[C@@H]5NC(=O)[C@H]5CCCC[C@@H]5NC(=O)C[C@H](CCCNC(=N)N)NC(=O)[C@@H]5[C@@H](N)C[C@H]6C[C@@H]5C6(C)C)C(N)=O)C4=O)NC(=O)CCN4C(=O)CC(SC[C@H](NC(=O)CNC(=O)CNC(=O)[C@H]5CCCC[C@@H]5NC(=O)C[C@H](CC(=O)O)NC(=O)[C@H]5CCCC[C@@H]5NC(=O)[C@H]5CCCC[C@@H]5NC(=O)C[C@H](CCCNC(=N)N)NC(=O)[C@@H]5[C@@H](N)C[C@H]6C[C@@H]5C6(C)C)C(N)=O)C4=O)C(=O)N[C@@H](CCCCNC(=O)CCCC[C@@H]4SC[C@@H]5NC(=O)N[C@@H]54)C(N)=O)C3=O)C(N)=O)[C@@H]1C2", "note": "(stereo partly drawn) [Compound 2f]", "values": [{"measurement": "Kd", "setting": "Aβ oligomers [1]", "value": "1.79 ± 0.09", "unit": "nM"}, {"measurement": "Kd", "setting": "Aβ oligomers [2]; first binding stage", "value": "19.3 ± 9.4", "unit": "nM"}, {"measurement": "Kd", "setting": "Aβ oligomers [2]; second binding stage", "value": "816 ± 467", "unit": "nM"}]}, {"compound": "CC1(C)[C@H]2C[C@H](NC(=O)[C@H]3CCCC[C@@H]3NC(=O)C[C@H](CCCNC(=N)N)NC(=O)[C@H]3CCCC[C@@H]3N)[C@@H](C(=O)N[C@@H](CC(=O)O)CC(=O)N[C@H]3CCCC[C@@H]3C(=O)NCC(=O)NCC(=O)N[C@@H](CSC3CC(=O)N(CCC(=O)NCCCC[C@H](NC(=O)CCN4C(=O)CC(SC[C@H](NC(=O)CNC(=O)CNC(=O)[C@H]5CCCC[C@@H]5NC(=O)C[C@H](CC(=O)O)NC(=O)[C@@H]5[C@@H](NC(=O)[C@H]6CCCC[C@@H]6NC(=O)C[C@H](CCCNC(=N)N)NC(=O)[C@H]6CCCC[C@@H]6N)C[C@H]6C[C@@H]5C6(C)C)C(N)=O)C4=O)C(=O)NCCCC[C@H](NC(=O)[C@H](CCCCNC(=O)CCN4C(=O)CC(SC[C@H](NC(=O)CNC(=O)CNC(=O)[C@H]5CCCC[C@@H]5NC(=O)C[C@H](CC(=O)O)NC(=O)[C@@H]5[C@@H](NC(=O)[C@H]6CCCC[C@@H]6NC(=O)C[C@H](CCCNC(=N)N)NC(=O)[C@H]6CCCC[C@@H]6N)C[C@H]6C[C@@H]5C6(C)C)C(N)=O)C4=O)NC(=O)CCN4C(=O)CC(SC[C@H](NC(=O)CNC(=O)CNC(=O)[C@H]5CCCC[C@@H]5NC(=O)C[C@H](CC(=O)O)NC(=O)[C@@H]5[C@@H](NC(=O)[C@H]6CCCC[C@@H]6NC(=O)C[C@H](CCCNC(=N)N)NC(=O)[C@H]6CCCC[C@@H]6N)C[C@H]6C[C@@H]5C6(C)C)C(N)=O)C4=O)C(=O)N[C@@H](CCCCNC(=O)CCCC[C@@H]4SC[C@@H]5NC(=O)N[C@@H]54)C(N)=O)C3=O)C(N)=O)[C@@H]1C2", "note": "(stereo partly drawn) [Compound 2h]", "values": [{"measurement": "Kd", "setting": "Aβ oligomers [1]", "value": "1.35 ± 0.08", "unit": "nM"}, {"measurement": "Kd", "setting": "Aβ oligomers [2]; first binding stage", "value": "8.61 ± 5.64", "unit": "nM"}, {"measurement": "Kd", "setting": "Aβ oligomers [2]; second binding stage", "value": "79 ± 45.9", "unit": "nM"}]}]}
